Legend:
[1] = 4-week repeat-dose toxicity/TK study in rats; format: in vivo, Sprague Dawley rats; settings: for AUC(0-t) / Cmax / Tmax: Sprague Dawley (Crl: CD (SD)), rat, plasma, po
Experimental: The PK of ZB716 was investigated in a 4-week repeat-dose toxicity study in rats. Groups of Sprague Dawley rats (n = 10/sex/group; n = 3/sex/TK group) were orally administered ZB716 (5% EtOH, 15% PG, 5% Solutol, and 75% of 40% HP-β-CD in DI water) at dose levels of 25, 100, and 400 mg/kg/day for 4 weeks. The plasma concentration of ZB716 was measured at various times through to 24 h post-dose on days 1 and 28.
Four-to-six-week-old Sprague Dawley rats (Crl: CD (SD)) (SPF/VAF) were purchased from Beijing Vital River Laboratory Animal Technology, Co. Ltd.). Six-month-old beagle dogs were purchased from Beijing Marshall Biotechnology Co. Ltd. Animals were quarantined/acclimated for 2–6 weeks prior to dose initiation. Both Sprague Dawley rats and beagle dogs were given oral administration of ZB716 (20% PG, 5% Solutol, and 75% of 40% HP-β-CD in water) at different dose levels. After treatment with the test articles, whole blood was collected from each study animal by puncture of the tail vein (0.4 mL of whole blood from rats) and/or the peripheral vein (0.6 mL of whole blood from dogs) into tubes containing K2EDTA at each timepoint: pre-dose, and 0.5, 1, 2, 4, 8, and 24 h post-dose. The plasma samples were divided into 2 aliquots (approximately equal in volume) and stored frozen at −75 ± 15 °C within 2 h of the collection until analysis at Pharmaron, China.
The stock solution of ZB716 (5.0 mg/mL) and ZB716-d6 (1 mg/mL) in ACN:DI Water = 1:1 was prepared and stored at −20 ± 5 °C. The desired serial concentrations of working reference analyte solutions were achieved by diluting a stock analyte solution with 50% acetonitrile (0.1% formic acid) in water solution. The bioanalytical LC–MS/MS method was validated for quantitative determination of ZB716 in Sprague Dawley rat plasma and beagle dog plasma, with acceptable selectivity, sensitivity, calibration curve, precision, and accuracy. This method is applicable for the determination of ZB716 in Sprague Dawley rat plasma and beagle dog plasma, with a lower limit of quantification of 20.0 ng/mL, and an upper limit of quantification of 10,000 ng/mL.
Five microliters of diluted supernatant was injected into the LC–MS/MS system (Shimadzu LC30AD HPLC system with a SynergiTM 4 μm Fusion-RP 80 Å (50 × 2 mm) column using gradient elution and a Triple Quad 5500 mass spectrometer) for quantitative analysis. The mobile phases used were 0.1% formic acid in deionized water and 0.1% formic acid in acetonitrile. The pharmacokinetic parameters T1/2 (the biological half-life), Cmax (maximal concentration), Tmax (time at which Cmax is observed), and AUC (area under the plasma concentration–time curve) were calculated from the plasma concentration versus time data using WinNonlin (Phoenix^TM, version 8.1, Mountain View, CA, USA). All PK studies were conducted by Pharmaron in Beijing, China.

[2] = test system: CYP3A4; assay: CYP induction (enzyme activity) in cryopreserved human hepatocytes, CYP3A4; format: in vitro ADME; settings: for fold induction at 72 h, 0.15 µM / fold induction at 72 h, 1.5 µM / fold induction at 72 h, 5 µM / fold induction at 72 h, 15 µM: human, plated cryopreserved human hepatocytes
[3] = molecular target: CYP2A6 (Homo sapiens, UniProt P11509); assay: CYP phenotyping, recombinant CYP2A6
Experimental: Bactosomes prepared from E. coli that heterologously expressed individual human CYP isoforms together with human CYP reductase were obtained from CYPEX LTD (Scotland, UK), and stored at −80 °C prior to use. […] Timepoints were taken at 0, 5, 10, 15, 20, and 30 min. Substrate disappearance was used to calculate intrinsic clearance (Clint) and half-life (t1/2). All incubations were performed in triplicate. […] The chemical inhibitors for CYP1A2, 2A6, 2B6, 2C8, 2C9, 2C19, 2D6, and 3A4 were furafylline, tranylcypromine, ticlopidine, montelukast, sulfaphenazole, N-3-benzylnirvanol, quinidine, and ketoconazole, respectively. Timepoints were collected at 0, 15, 30, 45, and 60 min, and the remaining percentage of the parent drug at each timepoint was calculated (the calculation details are available in the Supplementary Materials). All incubations were performed in triplicate.
1.3.1 Intrinsic Clearance (Heterologously Expressed Human Cytochrome P450) All calculations were carried out using Microsoft Excel. The slope, k, was determined by linear regression of the natural logarithm of percent parent disappearance vs. incubation time curve. Peak areas for test article and internal standard were determined from extracted ion chromatograms. The peak area ratio was used to calculated for the results.
The half-life value (t1/2 rCYPi) was determined from the slope value: […]

[4] = female, 25 mg/kg/day, day 1, PO 25 mg/kg/day, Female
[5] = female, 25 mg/kg/day, day 28, PO 25 mg/kg/day, Female
[6] = female, 100 mg/kg/day, day 1, PO 100 mg/kg/day, Female
[7] = female, 100 mg/kg/day, day 28, PO 100 mg/kg/day, Female
[8] = female, 400 mg/kg/day, day 1, PO 400 mg/kg/day, Female
[9] = female, 400 mg/kg/day, day 28, PO 400 mg/kg/day, Female
[10] = male, 25 mg/kg/day, day 1, PO 25 mg/kg/day, Male
[11] = male, 25 mg/kg/day, day 28, PO 25 mg/kg/day, Male
[12] = male, 100 mg/kg/day, day 1, PO 100 mg/kg/day, Male
[13] = male, 100 mg/kg/day, day 28, PO 100 mg/kg/day, Male
[14] = male, 400 mg/kg/day, day 1, PO 400 mg/kg/day, Male
[15] = male, 400 mg/kg/day, day 28, PO 400 mg/kg/day, Male

CYP2A6, sequence (P11509 whole entry): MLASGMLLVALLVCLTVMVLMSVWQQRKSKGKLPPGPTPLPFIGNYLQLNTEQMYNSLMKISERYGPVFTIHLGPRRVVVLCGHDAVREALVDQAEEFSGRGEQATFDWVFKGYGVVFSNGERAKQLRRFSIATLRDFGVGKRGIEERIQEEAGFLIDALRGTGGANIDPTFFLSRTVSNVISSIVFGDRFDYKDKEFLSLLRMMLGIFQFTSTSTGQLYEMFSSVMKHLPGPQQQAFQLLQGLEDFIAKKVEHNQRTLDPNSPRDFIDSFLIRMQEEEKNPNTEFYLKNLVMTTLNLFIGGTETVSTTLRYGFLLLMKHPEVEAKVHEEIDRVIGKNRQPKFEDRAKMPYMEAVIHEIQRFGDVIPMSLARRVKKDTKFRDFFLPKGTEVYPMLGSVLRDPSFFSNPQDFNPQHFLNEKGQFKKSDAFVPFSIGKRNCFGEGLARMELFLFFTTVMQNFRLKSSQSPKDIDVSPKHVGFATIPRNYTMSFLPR

## C[C@]12CC[C@@H]3c4ccc(B(O)O)cc4C[C@@H](CCCCCCCCC[S+]([O-])CCCC(F)(F)C(F)(F)F)[C@H]3[C@@H]1CC[C@@H]2O (stereo partly drawn) [ZB716, fulvestrant-3-boronic acid]
[1]; PO 25, 100, 400 mg/kg/day for 4 weeks
  test-article-related mortality or moribundity: no test-article-related mortality or moribundity
[1]; [4]
  AUC(0-t): 7700 ng·h/mL
  Cmax: 1310 ng/mL
  Tmax: 1 h
[1]; [5]
  AUC(0-t): 8040 ng·h/mL
  Cmax: 1770 ng/mL
  Tmax: 1 h
[1]; [6]
  AUC(0-t): 42200 ng·h/mL
  Cmax: 3200 ng/mL
  Tmax: 1 h
[1]; [7]
  AUC(0-t): 24500 ng·h/mL
  Cmax: 3850 ng/mL
  Tmax: 1 h
[1]; [8]
  AUC(0-t): 121000 ng·h/mL
  Cmax: 11900 ng/mL
  Tmax: 2 h
[1]; [9]
  AUC(0-t): 51800 ng·h/mL
  Cmax: 4850 ng/mL
  Tmax: 2 h
[1]; [10]
  AUC(0-t): 5400 ng·h/mL
  Cmax: 1040 ng/mL
  Tmax: 0.5 h
[1]; [11]
  AUC(0-t): 4750 ng·h/mL
  Cmax: 1310 ng/mL
  Tmax: 0.5 h
[1]; [12]
  AUC(0-t): 15700 ng·h/mL
  Cmax: 1870 ng/mL
  Tmax: 1 h
[1]; [13]
  AUC(0-t): 20100 ng·h/mL
  Cmax: 2840 ng/mL
  Tmax: 0.5 h
[1]; [14]
  AUC(0-t): 52400 ng·h/mL
  Cmax: 3400 ng/mL
  Tmax: 1 h
[1]; [15]
  AUC(0-t): 50700 ng·h/mL
  Cmax: 4060 ng/mL
  Tmax: 2 h
[2]; donor one, 0.15 µM
  Percent of Control: −4.55%
  fold induction at 72 h, 0.15 µM: 0.774 ± 0.078
[2]; donor one, 1.5 µM
  Percent of Control: −7.08%
  fold induction at 72 h, 1.5 µM: 0.649 ± 0.085
[2]; donor one, 5 µM
  Percent of Control: 4.85%
  fold induction at 72 h, 5 µM: 1.24 ± 0.18
[2]; donor one, 15 µM
  Percent of Control: 9.95%
  fold induction at 72 h, 15 µM: 1.49 ± 0.21
[2]; donor three, 0.15 µM
  Percent of Control: −5.29%
  fold induction at 72 h, 0.15 µM: 0.61 ± 0.043
[2]; donor three, 1.5 µM
  Percent of Control: −2.34%
  fold induction at 72 h, 1.5 µM: 0.828 ± 0.082
[2]; donor three, 5 µM
  Percent of Control: −6.62%
  fold induction at 72 h, 5 µM: 0.513 ± 0.081
[2]; donor three, 15 µM
  Percent of Control: −9.26%
  fold induction at 72 h, 15 µM: 0.318 ± 0.005
[2]; donor two, 0.15 µM
  Percent of Control: −2.26%
  fold induction at 72 h, 0.15 µM: 0.797 ± 0.1
[2]; donor two, 1.5 µM
  Percent of Control: 4.83%
  fold induction at 72 h, 1.5 µM: 1.43 ± 0.14
[2]; donor two, 5 µM
  Percent of Control: 22.4%
  fold induction at 72 h, 5 µM: 3.01 ± 0.33
[2]; donor two, 15 µM
  Percent of Control: 21.5%
  fold induction at 72 h, 15 µM: 2.92 ± 0.25
[3]; human
  half-life at 2 µM: 0.277 ± 0.01 h
[3]; recombinant CYP2A6, 2 µM ZB716
  Clint: 0.836 ± 0.028 µL/min/pmol CYP

Source: paper PMC8400955 (Pharmaceuticals, 2021)
